# Measured values published in PubChem BioAssay AID1645865 (Buhrlage Lab, Dana-Farber Cancer Institute and Novartis …, 2021).
# Activity calls are given as the source filed them.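 Rule for the calls: active = maximal inhibition of the USP30 enzyme reaching 30% or more across the dose series; inactive = the rest.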
# Target: Ubiquitin carboxyl-terminal hydrolase 30 (Homo sapiens) (UniProt Q70CQ3)
# Experiment: ubiquitin-specific protease 30 DUB inhibitors, concentration-effect, biochemical, validation of primary actives (AID 1645865)
# Conditions: purified USP30, Ub-rhodamine cleavage, fluorescence, 2 h
# Sequence of Ubiquitin carboxyl-terminal hydrolase 30 (Homo sapiens) (Q70CQ3 whole entry, looked up): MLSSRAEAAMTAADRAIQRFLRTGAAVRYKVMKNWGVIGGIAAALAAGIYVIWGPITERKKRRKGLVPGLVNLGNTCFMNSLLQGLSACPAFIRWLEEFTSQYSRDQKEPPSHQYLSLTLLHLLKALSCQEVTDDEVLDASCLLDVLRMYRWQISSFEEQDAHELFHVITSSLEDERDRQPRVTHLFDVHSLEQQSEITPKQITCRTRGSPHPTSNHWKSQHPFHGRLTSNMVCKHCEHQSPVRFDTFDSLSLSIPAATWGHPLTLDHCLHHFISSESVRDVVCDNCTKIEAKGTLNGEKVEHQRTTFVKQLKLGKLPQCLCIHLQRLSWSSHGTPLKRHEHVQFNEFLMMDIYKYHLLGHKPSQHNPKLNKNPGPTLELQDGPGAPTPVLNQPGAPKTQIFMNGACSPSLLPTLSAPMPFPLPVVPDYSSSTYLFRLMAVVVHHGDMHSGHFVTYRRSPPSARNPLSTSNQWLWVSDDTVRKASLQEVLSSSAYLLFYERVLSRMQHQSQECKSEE
row,Compound,IC50
1,C/C1=C/C=C/[C@H](C)[C@H](O)[C@@H](C)[C@@H](O)[C@@H](C)[C@H](O)[C@H](C)[C@@H](O)[C@@H](C)/C=C(/C)C(=O)c2c(O)c(C)cc3c2C(=O)C=C(NC1=O)C3=O,> 50 µM (inactive)
2,CCn1cnc2ccc(C(=O)NC3CC3)cc2c1=O,> 50 µM (inactive)
3,O=C(Cn1c(=O)n(CCCC(=O)N2CC=C(c3ccccc3)CC2)c(=O)c2ccccc21)NCCC1=CCCCC1,> 50 µM (inactive)
4,O=C(NCCn1ccc2ccccc21)c1cc2ccccc2oc1=O,40.9 µM
5,COc1cccc(NC(=O)CSc2nnc(-c3cc4cccc(OC)c4o3)n2C)c1,5.18 µM
6,COc1ccc(CCNC(=O)COc2ncnc3oc(C)c(C)c23)cc1OC,> 50 µM (inactive)
7,O=C(CN1CCCc2ccccc21)Nc1ccc(N2CCOCC2)cc1,> 50 µM (inactive)
8,COc1ccc(CCNc2c(-c3ccccc3O)nc3cnccn23)cc1OC,> 50 µM (inactive)
9,CN(C)C(=O)CSc1nnc(-c2cccc(Cl)c2)n1-c1ccc(Cl)c(C(F)(F)F)c1,2.08 µM
10,COc1ccc(-c2cc(-c3nnc4n3CCCCC4)n(-c3ccccc3)n2)cc1,39.3 µM
11,COc1ccc(Cl)c(NC(=O)C2CC(=O)Nc3cc(-c4ccccc4)nn32)c1 (configuration not stated),13.2 µM
12,COc1cccc(N2CCN(c3ccc4nnc(CCC(=O)N5CCc6ccccc6C5)n4n3)CC2)c1,39.2 µM
13,O=C(Nc1cc(F)c2nc(N3CCOCC3)ccc2c1)C1CC1,> 50 µM (inactive)
14,Cc1ccc2c(=O)c3c([nH]c2c1C)CCN(CC(=O)NCc1ccccc1)C3,> 50 µM (inactive)
15,c1ccc(-c2ccc(NCc3ccc4c(c3)OCO4)nn2)cc1,35.1 µM
16,COCC(=O)Nc1cc(F)c2nc(N3CCOCC3)ccc2c1,> 50 µM (inactive)
17,CCCCc1nc2sc3c(NCCN4CCOCC4)ncnc3c2c2c1CCC2,> 50 µM (inactive)
18,COc1ccccc1NC(=O)CSC1=NC2(CCCCC2)Nc2ccccc21,> 50 µM (inactive)
19,O=c1cc(CNc2ccc(Br)cc2)nc2nc(-c3ccccc3)[nH]n12,> 50 µM (inactive)
20,CCc1ccc2[nH]c(=O)c(CN(CCc3ccc(OC)c(OC)c3)C(=O)Nc3ccccc3)cc2c1,> 50 µM (inactive)
21,Cc1ccccc1NC(=O)c1nc(-c2cn(Cc3ccc(F)cc3)nn2)no1,3.46 µM
22,CC(OC(=O)CNC(=O)c1ccc(Br)cc1)C(=O)Nc1ccc2c(c1)OCCO2 (configuration not stated),28 µM
23,CCn1cc(-c2nc(-c3ccccc3)no2)c(=O)c2cc(F)ccc21,2.18 µM
24,Cc1cc(C(=O)CN2CCN(Cc3ccc4c(c3)OCO4)CC2)c(C)n1-c1ccc2c(c1)OCO2,> 50 µM (inactive)

row,Compound,IC50
1,Oc1cc(OCc2cccc(C(F)(F)F)c2)ccc1-c1ccn[nH]1,37.3 µM
2,Cc1noc(-c2ccc(N3CCCC(C(=O)NCc4ccc(F)cc4)C3)nc2)n1 (configuration not stated),14.6 µM
3,Cc1c(C)n(-c2ccccc2)c2ncn(CC(=O)NC(C)c3ccccc3)c(=O)c12 (configuration not stated),23 µM
4,O=C(Nc1ccc2c(c1)OCO2)c1[nH]nc2c1CCc1ccccc1-2,> 50 µM (inactive)
5,C=Cc1ccc(Cn2cc(S(=O)(=O)N3CCOCC3)ccc2=O)cc1,28.1 µM
6,Cc1cc(C)n(-c2ccc(C(=O)Nc3cccc(S(=O)(=O)N4CCCC4)c3)cc2)n1,9.63 µM
7,CC(C)(C)C(=O)C1C2C(=O)N(Cc3ccccc3)C(=O)C2C2c3ccccc3C=CN12 (configuration not stated),> 50 µM (inactive)
8,Cc1cc(SCc2ncon2)c(C)cc1Cl,> 50 µM (inactive)
9,Cn1cccc1C(=O)N1CCCC2(C1)Nc1cccnc1NC2=NC1CCCC1 (configuration not stated),> 50 µM (inactive)
10,Nc1c(-c2ccc(Cl)cc2)cnc2nc(Sc3ncc(C(F)(F)F)cc3Cl)nn12,> 50 µM (inactive)
11,Cc1nn(CC(=O)Nc2ccc(Br)c3cccnc23)c(=O)c2ccccc12,> 5 µM (inactive)
12,FC(F)(F)c1cccc(CSc2ccc3nnc(-c4ccccn4)n3n2)c1,14.9 µM
13,COc1ccc(NC(=O)Cn2cc(C(=O)c3ccc(F)cc3)c(=O)c3cc(C)ccc32)cc1,20.7 µM
14,COc1ccc(S(=O)(=O)N2CCc3ccccc32)cc1C(=O)Nc1ccc2[nH]c(=O)[nH]c2c1,2.36 µM
15,Cc1ccn(-c2ccc(NC(=O)C3CCCCC3)cc2)n1,17.2 µM
16,O=C(Nc1ccc(Br)cn1)c1nc2ccccc2nc1N1CCCCC1,> 50 µM (inactive)
17,Cc1cc(C(=O)N2CCOCC2)c(C)n1-c1ccc(O)cc1,> 50 µM (inactive)
18,COc1ccc(-c2nc(C)c(C(=O)NCc3ccc(S(N)(=O)=O)cc3)s2)cc1,> 50 µM (inactive)
19,CC1=C(c2ccc(C)c(C)c2)S(=O)(=O)NC1=NCC(=O)NCCCc1ccccc1,19.7 µM
20,COCCN(C1CCN(CCc2ccc(Cl)cc2)CC1)S(=O)(=O)c1cccc2cccnc12,> 50 µM (inactive)
21,O=[N+]([O-])c1ccc(NCc2ccc(-c3cccs3)s2)nc1,39.1 µM
22,Cc1ccc(C(=O)c2cn(CC(=O)Nc3ccccc3)c3ccc(C)cc3c2=O)cc1,4.45 µM
23,COc1ccc(OC)c(-n2c(SCC(=O)N3CCc4ccccc43)nnc2-c2cccc(S(=O)(=O)N(C)C)c2)c1,3.12 µM
